Assay [1] has as its target Peptidyl-prolyl cis-trans isomerase A (Homo sapiens, UniProt P62937). Description: Immunosuppressive activity was measured by inhibition of the IL-2 production in Jurkat cells. Format: functional, cell-based.
Assay [2] deals with Human immunodeficiency virus type 1 reverse transcriptase (Human immunodeficiency virus 1, UniProt Q72547). Nature of the assay: In vitro inhibitory activity against HIV-1 RT in CEM4 cell line. The assay is classed as cell-based.

Peptidyl-prolyl cis-trans isomerase A, sequence (P62937 whole entry): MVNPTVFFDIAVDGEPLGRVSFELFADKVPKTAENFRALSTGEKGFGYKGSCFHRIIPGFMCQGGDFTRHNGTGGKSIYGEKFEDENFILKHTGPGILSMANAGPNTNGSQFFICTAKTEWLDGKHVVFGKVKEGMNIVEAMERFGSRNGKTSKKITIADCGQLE

Turning to `C/C=C/C[C@@H](C)[C@@H](O)[C@H]1C(=O)N[C@@H](CC)C(=O)N(C)[C@H](SCCN2CCOCC2)C(=O)N(C)[C@@H](CC(C)C)C(=O)N[C@@H](C(C)C)C(=O)N(C)[C@@H](CC(C)C)C(=O)N[C@@H](C)C(=O)N[C@H](C)C(=O)N(C)[C@@H](CC(C)C)C(=O)N(C)[C@@H](CC(C)C)C(=O)N(C)[C@@H](C(C)C)C(=O)N1C`, the half-inhibitory concentration (IC50) in assay [1] came to 128 nM; in assay [2], 101 nM.

`C/C=C/C[C@@H](C)[C@@H](O)[C@H]1C(=O)N[C@@H](CC)C(=O)N(C)CC(=O)N(C)[C@@H](CC(C)(C)O)C(=O)N[C@@H](C(C)C)C(=O)N(C)[C@@H](CC(C)C)C(=O)N[C@@H](C)C(=O)N[C@H](C)C(=O)N(C)[C@@H](CC(C)C)C(=O)N(C)[C@@H](CC(C)C)C(=O)N(C)[C@@H](C(C)C)C(=O)N1C`: in assay [1], 166 nM corresponded to half-maximal inhibition (IC50). Take `C/C=C/C[C@@H](C)[C@@H](O)[C@H]1C(=O)N[C@@H](CC)C(=O)N(C)[C@H](SCCN(C)C(C)(C)C)C(=O)N(C)[C@@H](CC(C)(C)O)C(=O)N[C@@H](C(C)C)C(=O)N(C)[C@@H](CC(C)C)C(=O)N[C@@H](C)C(=O)N[C@H](C)C(=O)N(C)[C@@H](CC(C)C)C(=O)N(C)[C@@H](CC(C)C)C(=O)N(C)[C@@H](C(C)C)C(=O)N1C`: the IC50 in assay [1] amounted to 1570 nM; in assay [2] it was 43 nM. In the case of `C/C=C/C[C@@H](C)[C@@H](O)[C@H]1C(=O)N[C@@H](CC)C(=O)N(C)[C@H](SCCN(C)C)C(=O)N(C)[C@@H](CC(C)C)C(=O)N[C@@H](C(C)C)C(=O)N(C)[C@@H](CC(C)C)C(=O)N[C@@H](C)C(=O)N[C@H](C)C(=O)N(C)[C@@H](CC(C)C)C(=O)N(C)[C@@H](CC(C)C)C(=O)N(C)[C@@H](C(C)C)C(=O)N1C`, the IC50 in assay [1] stood at 47 nM; in assay [2], 35 nM. In the case of `C/C=C/C[C@@H](C)[C@@H](O)C1C(=O)N[C@@H](CC)C(=O)N(C)CC(=O)N(C)[C@@H](CC(C)(C)O)C(=O)N[C@@H](C(C)C)C(=O)N(C)[C@@H](CC(C)C)C(=O)N[C@@H](C)C(=O)N[C@H](C)C(=O)N(C)[C@@H](CC(C)C)C(=O)N(C)[C@@H](CC(C)C)C(=O)N(C)[C@@H](C(C)C)C(=O)N1C` (stereo not given in full), in assay [2], the IC50 came out at 138 nM. Take `C/C=C/C[C@@H](C)[C@@H](O)[C@H]1C(=O)N[C@@H](CC)C(=O)N(C)[C@H](SCCN(C)C(C)C)C(=O)N(C)[C@@H](CC(C)C)C(=O)N[C@@H](C(C)C)C(=O)N(C)[C@@H](CC(C)C)C(=O)N[C@@H](C)C(=O)N[C@H](C)C(=O)N(C)[C@@H](CC(C)C)C(=O)N(C)[C@@H](CC(C)C)C(=O)N(C)[C@@H](C(C)C)C(=O)N1C`: the IC50 in assay [1] was found to be 61 nM; in assay [2] it was 19.5 nM. `C/C=C/C[C@@H](C)[C@@H](O)[C@H]1C(=O)N[C@@H](CC)C(=O)N(C)[C@H](CO)C(=O)N(C)[C@@H](CC(C)(C)O)C(=O)N[C@@H](C(C)C)C(=O)N(C)[C@@H](CC(C)C)C(=O)N[C@@H](C)C(=O)N[C@H](C)C(=O)N(C)[C@@H](CC(C)C)C(=O)N(C)[C@@H](CC(C)C)C(=O)N(C)[C@@H](C(C)C)C(=O)N1C` yielded an IC50 in assay [1] of 783 nM. With `C/C=C/C[C@@H](C)[C@@H](O)[C@H]1C(=O)N[C@@H](CC)C(=O)N(C)[C@H](SCCO)C(=O)N(C)[C@@H](CC(C)(C)O)C(=O)N[C@@H](C(C)C)C(=O)N(C)[C@@H](CC(C)C)C(=O)N[C@@H](C)C(=O)N[C@H](C)C(=O)N(C)[C@@H](CC(C)C)C(=O)N(C)[C@@H](CC(C)C)C(=O)N(C)[C@@H](C(C)C)C(=O)N1C`, the IC50 in assay [1] is 959 nM; in assay [2], 80 nM. In the case of `C/C=C/C[C@@H](C)[C@@H](O)[C@H]1C(=O)N[C@@H](CC)C(=O)N(C)[C@H](SCCN2CCCCC2)C(=O)N(C)[C@@H](CC(C)(C)O)C(=O)N[C@@H](C(C)C)C(=O)N(C)[C@@H](CC(C)C)C(=O)N[C@@H](C)C(=O)N[C@H](C)C(=O)N(C)[C@@H](CC(C)C)C(=O)N(C)[C@@H](CC(C)C)C(=O)N(C)[C@@H](C(C)C)C(=O)N1C`, the IC50 is 882 nM in assay [1] and 19.5 nM in assay [2]. Consider `C/C=C/C[C@@H](C)[C@@H](O)[C@H]1C(=O)N[C@@H](CC)C(=O)N(C)CC(=O)N(C)[C@@H](C[C@@H](C)CC)C(=O)N[C@@H](C(C)C)C(=O)N(C)[C@@H](CC(C)C)C(=O)N[C@@H](C)C(=O)N[C@H](C)C(=O)N(C)[C@@H](CC(C)C)C(=O)N(C)[C@@H](CC(C)C)C(=O)N(C)[C@@H](C(C)C)C(=O)N1C`, for which the IC50 in assay [1] was determined as 934 nM; in assay [2], 293 nM. As for `C/C=C/C[C@@H](C)[C@@H](O)[C@H]1C(=O)N[C@@H](CC)C(=O)N(C)[C@H](SCCO)C(=O)N(C)[C@@H](CC(C)C)C(=O)N[C@@H](C(C)C)C(=O)N(C)[C@@H](CC(C)C)C(=O)N[C@@H](C)C(=O)N[C@H](C)C(=O)N(C)[C@@H](CC(C)C)C(=O)N(C)[C@@H](CC(C)C)C(=O)N(C)[C@@H](C(C)C)C(=O)N1C`, the values for the IC50 in assay [1] and in assay [2] were 19 nM and 70 nM, respectively. `C/C=C/C[C@@H](C)[C@@H](O)[C@H]1C(=O)N[C@@H](CC)C(=O)N(C)[C@H](SC)C(=O)N(C)[C@@H](CC(C)C)C(=O)N[C@@H](C(C)C)C(=O)N(C)[C@@H](CC(C)C)C(=O)N[C@@H](C)C(=O)N[C@H](C)C(=O)N(C)[C@@H](CC(C)C)C(=O)N(C)[C@@H](CC(C)C)C(=O)N(C)[C@@H](C(C)C)C(=O)N1C`: the IC50 is 3 nM in assay [1] and 65.5 nM in assay [2]. In the case of `C/C=C/C[C@@H](C)[C@@H](O)[C@H]1C(=O)N[C@@H](CC)C(=O)N(C)[C@H](SCCN(CC)CC)C(=O)N(C)[C@@H](CC(C)(C)O)C(=O)N[C@@H](C(C)C)C(=O)N(C)[C@@H](CC(C)C)C(=O)N[C@@H](C)C(=O)N[C@H](C)C(=O)N(C)[C@@H](CC(C)C)C(=O)N(C)[C@@H](CC(C)C)C(=O)N(C)[C@@H](C(C)C)C(=O)N1C`, the IC50 came to 6050 nM in assay [1] and 47 nM in assay [2].

In the case of `C/C=C/C[C@@H](C)[C@@H](O)[C@H]1C(=O)N[C@@H](CC)C(=O)N(C)[C@H](SCCN2CCCCC2)C(=O)N(C)[C@@H](CC(C)C)C(=O)N[C@@H](C(C)C)C(=O)N(C)[C@@H](CC(C)C)C(=O)N[C@@H](C)C(=O)N[C@H](C)C(=O)N(C)[C@@H](CC(C)C)C(=O)N(C)[C@@H](CC(C)C)C(=O)N(C)[C@@H](C(C)C)C(=O)N1C`, the IC50 in assay [1] was found to be 97 nM; in assay [2], 72 nM. As to `C/C=C/C[C@@H](C)[C@@H](O)[C@H]1C(=O)N[C@@H](CC)C(=O)N(C)[C@H](SCCN(C)C)C(=O)N(C)[C@@H](CC(C)(C)O)C(=O)N[C@@H](C(C)C)C(=O)N(C)[C@@H](CC(C)C)C(=O)N[C@@H](C)C(=O)N[C@H](C)C(=O)N(C)[C@@H](CC(C)C)C(=O)N(C)[C@@H](CC(C)C)C(=O)N(C)[C@@H](C(C)C)C(=O)N1C` [SCY 635], the IC50 in assay [2] is 45 nM. Take `C/C=C/C[C@@H](C)[C@@H](O)[C@H]1C(=O)N[C@@H](CC)C(=O)N(C)[C@H](SC)C(=O)N(C)[C@@H](CC(C)(C)O)C(=O)N[C@@H](C(C)C)C(=O)N(C)[C@@H](CC(C)C)C(=O)N[C@@H](C)C(=O)N[C@H](C)C(=O)N(C)[C@@H](CC(C)C)C(=O)N(C)[C@@H](CC(C)C)C(=O)N(C)[C@@H](C(C)C)C(=O)N1C`: the 50% inhibitory concentration (IC50) in assay [1] worked out at 110 nM; in assay [2] it was 84 nM. As for `C/C=C/C[C@@H](C)[C@@H](O)C1C(=O)N[C@@H](CC)C(=O)N(C)[C@H](CO)C(=O)N(C)[C@@H](CC(C)(C)O)C(=O)N[C@@H](C(C)C)C(=O)N(C)[C@@H](CC(C)C)C(=O)N[C@@H](C)C(=O)N[C@H](C)C(=O)N(C)[C@@H](CC(C)C)C(=O)N(C)[C@@H](CC(C)C)C(=O)N(C)[C@@H](C(C)C)C(=O)N1C` (stereo not given in full), the IC50 in assay [2] stood at 95 nM. As to `C/C=C/C[C@@H](C)[C@@H](O)[C@H]1C(=O)N[C@@H](CC)C(=O)N(C)[C@H](SCCN(C)C(C)(C)C)C(=O)N(C)[C@@H](CC(C)C)C(=O)N[C@@H](C(C)C)C(=O)N(C)[C@@H](CC(C)C)C(=O)N[C@@H](C)C(=O)N[C@H](C)C(=O)N(C)[C@@H](CC(C)C)C(=O)N(C)[C@@H](CC(C)C)C(=O)N(C)[C@@H](C(C)C)C(=O)N1C`, the 50% inhibitory concentration (IC50) stood at 277 nM in assay [1] and 24 nM in assay [2]. `C/C=C/C[C@@H](C)[C@@H](O)[C@H]1C(=O)N[C@@H](CC)C(=O)N(C)[C@H](SCCn2ccnc2)C(=O)N(C)[C@@H](CC(C)C)C(=O)N[C@@H](C(C)C)C(=O)N(C)[C@@H](CC(C)C)C(=O)N[C@@H](C)C(=O)N[C@H](C)C(=O)N(C)[C@@H](CC(C)C)C(=O)N(C)[C@@H](CC(C)C)C(=O)N(C)[C@@H](C(C)C)C(=O)N1C`: the IC50 came to 165 nM in assay [1] and 80.5 nM in assay [2]. In the case of `C/C=C/C[C@@H](C)[C@@H](O)[C@H]1C(=O)N[C@@H](CC)C(=O)N(C)[C@H](SCCN(CC)CC)C(=O)N(C)[C@@H](CC(C)C)C(=O)N[C@@H](C(C)C)C(=O)N(C)[C@@H](CC(C)C)C(=O)N[C@@H](C)C(=O)N[C@H](C)C(=O)N(C)[C@@H](CC(C)C)C(=O)N(C)[C@@H](CC(C)C)C(=O)N(C)[C@@H](C(C)C)C(=O)N1C`, the IC50 came to 15 nM in assay [1] and 2.5 nM in assay [2].

The values above are taken from ChEMBL document CHEMBL1136490, “Synthesis of non-immunosuppressive cyclophilin-Binding cyclosporin A derivatives as potential anti-HIV-1 drugs” (Bioorg Med Chem Lett, 2003).
